Data set [1] has as its system Puccinia recondita. Briefly: In vivo preventive test on Puccinia recondita (brown rust on wheat). Particulars: 500 ppm of active ingredient; wheat plants; 12 days after contamination. A digest of the protocol: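 Wheat plants ("Scipion") at 1-leaf stage, grown at 22° C, were sprayed with compound, then inoculated 24 h later with Puccinia recondita spores (100 000 spores per mL). Efficacy (%) graded 12 days after inoculation relative to solvent-treated controls.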

The nature of data set [2]: log P by HPLC on a reversed-phase column (C 18), EEC Directive 79/831 Annex V.A8. Type of data set: physicochemical. Particulars: for logP: HPLC on reversed-phase column (C 18), 40° C., 0.1% aqueous formic acid and acetonitrile, linear gradient 10% to 90% acetonitrile. A digest of the protocol:
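Calibration relied on straight-chain alkan-2-ones with 3 to 16 carbon atoms and known log P, with sample values read by linear interpolation of retention time between two adjacent standards. Separation at 40° C used 0.1% aqueous formic acid with acetonitrile rising linearly from 10% to 90%. UV spectra from 200 nm to 400 nm at chromatographic peak maxima gave lambda-max.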

For data set [3], the system named is Alternaria brassicae. Briefly: In vivo preventive test on Alternaria brassicae (leaf spot on radish). To be noted: 500 ppm of active ingredient; radish plants; 6 days after contamination. As to the method: In Vivo Preventive Test on Alternaria brassicae (Leaf Spot on Radish) […] Radish plants (“Pernod Clair” variety), sown in starter cups on a 50/50 peat soil pozzolana substrate and grown at 17° C., are treated at the cotyledon stage by spraying with the active ingredient prepared as described above. Plants, used as controls, are treated with the mixture of acetone/tween/DMSO/water not containing the active material. After 24 hours, the plants are contaminated by spraying the cotyledons with an aqueous suspension of Alternaria brassicae spores (50 000 spores per mL). The spores are collected from a 15-day-old culture. The contaminated radish plants are incubated at 20° C. and at 100% relative humidity. Grading (% of efficacy) is carried out 6 days after the contamination, in comparison with the control plants.

For data set [4], the system named is Septoria tritici. Briefly: In vivo preventive test on Septoria tritici (wheat). To be noted: 500 ppm of active ingredient; wheat plants; 24 days after contamination. A digest of the protocol: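 Scipion wheat grown at 22° C, sprayed at 1-leaf stage (10 cm); controls received acetone/tween/DMSO/water without active. Inoculated 24 h later with S. tritici spores (500 000/mL), held 72 h at 18° C, 100% RH, then 21 days at 90% RH. % efficacy vs controls scored 24 days post-inoculation.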

The subject of data set [5] is Botrytis cinerea. Briefly: In vivo preventive test on Botrytis cinerea (grey mould). To be noted: 500 ppm of active ingredient; gherkin plants; 4 to 5 days after contamination. A digest of the protocol:
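Gherkin plants at cotyledon stage Z11 were sprayed with compound, then inoculated 24 h later with Botrytis cinerea spores (50 000 spores per mL in nutrient solution). Plants were kept at 17° C and 90% RH, and percent efficacy versus solvent-treated controls was graded 4 to 5 days after contamination.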

In data set [6] the test system is Venturia inaequalis. The data set is described as follows: In vivo preventive test on Venturia inaequalis (apples). To be noted: 100 ppm of active ingredient, evaluated 10 days after inoculation. As to the method:
In Vivo Preventive Test on Venturia inaequalis (apples) [table] To produce a suitable preparation of active compound, 1 part by weight of active compound is mixed with the stated amounts of solvent and emulsifier, and the concentrate is diluted with water to the desired concentration. To test for preventive activity, young plants are sprayed with the preparation of active compound at the stated rate of application. After the spray coating has dried on, the plants are inoculated with an aqueous conidia suspension of the causal agent of apple scab (Venturia inaequalis) and then remain for 1 day in an incubation cabinet at approximately 20° C. and a relative atmospheric humidity of 100%. The plants are then placed in a greenhouse at approximately 21° C. and a relative atmospheric humidity of approximately 90%.

The subject of data set [7] is Uromyces appendiculatus. Briefly: In vivo preventive test on Uromyces appendiculatus (bean rust). Particulars: 500 ppm of active ingredient; bean plants; 11 days after contamination. A digest of the protocol: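 Saxa bean plants at 2-leaf stage, grown at 24° C., sprayed preventively with compound; 24 h later inoculated with U. appendiculatus spores (150 000 spores per mL). Percent efficacy graded 11 days after inoculation versus solvent-treated controls.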

For data set [8], the system named is Pyrenophora teres. The data set is described as follows: In vivo preventive test on Pyrenophora teres (barley). Particulars: 500 ppm of active ingredient; barley plants; 14 days after contamination. A digest of the protocol: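 Barley ("Plaisant") grown at 22° C was sprayed at the 1-leaf stage (10 cm) with active ingredient in acetone/tween/DMSO/water, with solvent-only controls. After 24 h, leaves were inoculated with Pyrenophora teres spores (12 000 spores per mL) from 12-day cultures. % efficacy versus controls graded 14 days post-contamination.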

For data set [9], the system named is Leptosphaeria nodorum. The data set is described as follows: In vivo preventive test on Leptosphaeria nodorum (wheat). To be noted: 500 ppm of active ingredient, evaluated 8 days after inoculation. As to the method:
In Vivo Preventive Test on Leptosphaeria nodorum Test (Wheat) [table] To produce a suitable preparation of active compound, 1 part by weight of active compound or active compound combination is mixed with the stated amounts of solvent and emulsifier, and the concentrate is diluted with water to the desired concentration. To test for preventive activity, young plants are sprayed with the preparation of active compound or active compound combination at the stated rate of application. After the spray coating has been dried, the plants are sprayed with a spore suspension of Leptosphaeria nodorum. The plants remain for 48 hours in an incubation cabinet at approximately 20° C. and a relative atmospheric humidity of approximately 100%.

Data set [10] concerns Sphaerotheca fuliginea. Briefly: In vivo preventive test on Sphaerotheca fuliginea (powdery mildew on cucurbits). Particulars: 500 ppm of active ingredient, gherkin plants, 12 days after contamination. A digest of the protocol:
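Gherkin plants ("Vert petit de Paris") grown at 24 °C were sprayed at cotyledon stage Z11; controls received acetone/tween/DMSO/water without active. Inoculation 24 h later by spraying cotyledons with 100 000 spores/mL. Efficacy (%) graded 12 days post-contamination versus controls.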

The test system of data set [11] is Blumeria graminis f.sp. hordei. The data set is described as follows: In vivo preventive test on Blumeria graminis (barley). To be noted: 500 ppm of active ingredient, evaluated 7 days after inoculation. As to the method:
In Vivo Preventive Test on Blumeria graminis (Barley) [table] To produce a suitable preparation of active compound, 1 part by weight of active compound or active compound combination is mixed with the stated amounts of solvent and emulsifier, and the concentrate is diluted with water to the desired concentration. To test for preventive activity, young plants are sprayed with the preparation of active compound or active compound combination at the stated rate of application. After the spray coating has been dried, the plants are dusted with spores of Blumeria graminis f.sp. hordei.

For data set [12], the system named is Pyricularia oryzae. Type of data set: in vivo. To be noted: 500 ppm of active ingredient; rice plants; 6 days after contamination.

As for `Cn1nc(C(F)F)c(C(=O)N(Cc2ccccc2-c2ccc(Cl)s2)C2CC2)c1F` [I.139], the Efficacy in data set [1] was 94%; in data set [3], 73%; in data set [4], 96%; in data set [5] it was 100%; in [6], 100%; in data set [7] it was 100%. Besides, the Efficacy in data set [8] is listed as 100%. Besides, in data set [2], the logP stood at 4.32.
For `Cn1nc(C(F)F)c(C(=O)N(Cc2ccccc2C2(C)CO2)C2CC2)c1F` (stereo not shown) [I.3], the Efficacy in data set [9] came out at 92%; in data set [10], 100%; in [1], 94%; in data set [4] it was 100%; in data set [11], 100%; in [6], 96%. Also, the Efficacy in [7] was 100%; in [8], 88%. Also, in data set [2], the logP is reported as 2.68.
`COc1ccsc1-c1ccc(F)cc1CN(C(=O)c1c(C(F)F)nn(C)c1F)C1CC1` [I.119]: the Efficacy in data set [10] is given as 100%; in [1], 100%; in data set [4], 90%; in data set [12], 70%; in [7], 100%; in [8], 71%. Also, the logP in [2] is 3.63.
Consider `Cc1csc(-c2ccc(C(C)C)c(CN(C(=O)c3c(C(F)F)nn(C)c3F)C3CC3)c2)c1` [I.106], for which the Efficacy in [10] is given as 100%; in data set [3] it was 100%; in [4] it was 80%; in data set [5], 80%; in [12], 80%; in [8], 93%. In [2], this compound came in with a logP of 4.93.
In the case of `Cn1nc(C(F)F)c(C(=O)N(Cc2cc(Cl)ccc2C2(C)CO2)C2CC2)c1F` (stereo not shown) [I.4, N-[5-chloro-2-(2-methyloxiran-2-yl)benzyl]-N-cyclopropyl-3-(difluoromethyl)-5-fluoro-1-methyl-1H-pyrazole-4-carboxamide], the Efficacy in data set [9] was determined as 80%; in data set [1], 98%; in [4], 100%; in [11], 94%; in data set [6], 100%; in [7] it was 100%. In data set [8], this compound displayed an Efficacy of 96%. Further, in [10] (Podosphaera fuliginea, 288 h, read-out: Efficacy), the pest or weed control at 500 ppm is 100%. The compound also came in with a chromatographic logP in data set [2] (logP) of 3.19.
As to `CC(C)c1ccc(-c2coc3ccccc23)cc1CN(C(=O)c1c(C(F)F)nn(C)c1F)C1CC1` [I.132], the Efficacy came out at 100% in data set [10]; 83% in data set [1]; 97% in [3]; 100% in [4]; 99% in data set [5]; 80% in [12]. Also, the Efficacy was determined as 77% in data set [7] and 88% in [8]. In data set [2], this compound had a logP of 4.90.

The logP is the decadic logarithm of the partition coefficient of the neutral form, usually between octanol and water. A low value points to lower lipophilicity. As a reminder, the chromatographic logP is a lipophilicity value derived from retention on a column. A low value points to a more hydrophilic compound.

The values above are taken from patent US10125126B2, “N-cycloalkyl-N-[(heterocyclylphenyl)methylene]-(thio)carboxamide derivatives” (BAYER CROPSCIENCE AG, priority 2012, dated 2018).
